The subject of data set [1] is multiple sclerosis patients. To be noted: MS patients; cited from earlier work.
For data set [2], the system named is antibody that binds to the oligopeptide in serum samples. Briefly: ELISA assay of serum antibody that binds to biotinylated oligopeptides immobilised on streptavidin plates. The conditions noted are these: pH 7.4, female subjects, FIG. 2. The data set is classed as binding, human. An excerpt: Six exemplary oligopeptides of the invention (each 17 amino-acids long, with biotinylated N-terminus) were used to prepare ELISA assays for studying antibody levels in patient samples. The oligopeptides were synthesised by K J Ross-Petersen ApS (Copenhagen, Denmark) and provided in lyophilized form. General serum diluent was purchased from Immunochemistry Technologies LLC (Minnesota, USA). Streptavidin coated 96-Well microplates were purchased from Eagle Biosciences (New Hampshire, USA) and the oligopeptides were applied to individual wells of the streptavidin plates as described below.
Sample preparation: Following obtaining informed consent, a 5 ml venous blood sample was withdrawn from each individual participating in this study. Samples were centrifuged for 10 minutes at 3000 RPM. Serum was then transferred into a clean plastic vial and the remainder was discarded. Serum was then diluted in general serum diluent (200 μl/mL), labelled accordingly and stored at −20° C. […]
ELISA protocol: Typical ELISA protocol was followed for quantifying antibodies present in serum. […] The plate was shaken for 5 seconds at 250 RPM and absorbance was measured using plate reader at wavelength 450 nm and 630 nm filter. Elisys Uno fully automated ELISA analyser (HUMAN company, Wiesbaden, Germany) was used to read the measurements. […]
Background: ELISA stands for enzyme-linked immunosorbent assay.

Data set [3] deals with C57BL/6 mice. The experiment in a line: Disease induction with antigen and adjuvant in combination with Pertussis toxin. It is filed as in vivo, mouse. The conditions noted are these: for severity of muscle weakness compared between antigens / grade of plaques compared to control animals: mice; for grade of plaques compared to control animals: mid brain section, antigen + adjuvant + pertussis, FIG. 8. Here is the method:
(§1) Male (n=16) and female (n=16) C57BL/6 mice, weighing between 16-18 g, were purchased from Royan institute (Tehran, Iran). MS induction study started when mice reached 6-8 weeks of age. Similar investigations were carried chick and guinea pig (data not shown). All procedures were performed aseptically and under supervision of Gandhi Hospital medical ethics committee (Tehran, Iran). Freund's complete adjuvant and Pertussis toxin purchased from Sigma-Aldrich (Dorset, UK).
At day 1 and day 2, 250 μg of antigen (oligopeptides of the invention) diluted in 150 μl of saline combined with 150 μl of adjuvant was injected intra-dermally into alcohol wiped back of each mouse. Following the injection of antigens, 400 ng Pertussis toxin diluted in 300 μl distilled water was injected intraperitoneally. Two control groups received either 150 μl distilled water in 150 μl of adjuvant or 400 ng Pertussis toxin diluted in 300 μl distilled water. The animals were kept in standard housing condition with appropriate temperature and humidity as well as adequate supplies of food and fresh water.
(§2) After scarifying mice by anaesthesia overdose at day 15 of injection, their brain was dissected out and fixed in 10% Formalin for histological analysis. The fixed samples were subsequently cut horizontally and processed to produce 5-micron thin paraffin sections, which then were stained with Haematoxylin and eosin (H&E), Glial fibrillary acidic protein (GFAP), CD-68 and Luxol fast blue (LFB). Various sections of the brain were then analyzed and imaged using a bright-field microscope (Optika B-383PL, Bergamo, Italy). Grade of plaque formation was defined as number of plaques measured in mid brain section as follow: […]
The effect of injected oligopeptide antigens of the invention on muscular function was tested by measuring animal fall time from inverted cage and ring. These tests follow the format of commonly used functional muscle evaluation tests in mice that use “wire hanging” behavioral tests wherein latency to fall after being suspended from a substrate is quantified to give a measure of muscular function.

Another data set relates to chicks. Briefly: MS induction in chicks with antigens combined with pertussis and adjuvant. It is filed as in vivo, chick. To be noted: 1 mg antigen per 70 g body weight. As for the experimental part: As a preliminary examination of our proposed treatment method, we induced MS in chicks by injecting antigens P, F, E and A (corresponding to SEQ ID NOs: 20, 21, 22 and 23) combined with pertussis and adjuvant. The dosage was 1 mg antigen per 70 g body weight. The main reason we chose this animal was to be able to easily visualize the walking impairment as they are bipedal like humans (compared to quadrupedal rodents). Initial symptoms were seen 12 days after antigen injection.

Data set [4] relates to C57BL/6 mice. Briefly: Disease induction with antigen and adjuvant without Pertussis toxin. It is filed as in vivo, mouse. To be noted: for grade of plaque formation: mid brain section, day 15, without Pertussis, FIG. 12. Here is the method:
as §1
C57BL/6 mice were injected with adjuvant and antigens (oligopeptides of the invention) at day 0 and 5. Control group received the injection of only adjuvant in distilled water.
as §2

The mark [5] stands for this setting: fall from inverted cage and ring.

“Also recorded” adds a separate entry of the source. No end group written: not given here.

Glatiramer acetate [Copaxone]: the “fewer relapses than patients taking placebo” value in data set [1] is reported as “about 30%”.

Take “MPRTQENAHSLERCWL [antigen H, MPRTQENAHSLERCWL]”: in data set [2], the “differences between healthy female patients (HF) and female patients with MS (FMS) in the levels of antibody that bind to the oligopeptide” value was “significant for each exemplary oligopeptide besides H and S”.

For the substance “RDSANIYHADSLKGRFT (Oligopeptide motif) [antigen A]”, in the data set with C57BL/6 mice [3] (setting [5]), the “severity of muscle weakness compared between antigens” value was “less than those injected with oligopeptide antigen P; also recorded: considerably less effect than oligopeptide antigens E and F”. In addition, the “grade of plaques compared to control animals” value in the data set with C57BL/6 mice [3] is recorded as “significantly higher”. In addition, in the data set on chicks, the “balance compared to controls” value is given as “lack of balance”, the “time to initial symptoms after antigen injection” value (“time to initial symptoms” for short) is recorded as 12 days and the “weight compared to controls” value is given as “Significant weight loss”.

As for “RGSRGQHQAHSLERVCH (Oligopeptide motif) [antigen P]”, the “severity of muscle weakness compared between antigens” value with C57BL/6 mice [3] (setting [5]) was “considerably less effect than oligopeptide antigens E and F”. In the data set with chicks, the “balance compared to controls” value is reported as “lack of balance”, the “time to initial symptoms” value amounted to 12 days and the “weight compared to controls” value is reported as “Significant weight loss”.

As for “RHSDEHHHDDSLPHPQQ (Oligopeptide motif) [antigen E]”, the “muscle weakness in female mice” value with C57BL/6 mice [3] (female mice, fall from inverted cage and ring) is listed as “most pronounced muscle weakness”. The “grade of plaques compared to control animals” value with C57BL/6 mice [3] is given as “significantly higher”. In the data set on C57BL/6 mice [4] (female mice), the “grade of plaque formation” value is on record as 9 (24-27). For the same substance, the “induction of MS in females” value in the data set with C57BL/6 mice [4] (females) is reported as “major inducer of MS in females”. Moreover, in the data set with chicks, the “balance compared to controls” value is reported as “lack of balance”, the “time to initial symptoms” value was determined as 12 days and the “weight compared to controls” value is recorded as “Significant weight loss”.

“RLTLSPEQAHSLILQHL [antigen S, RLTLSPEQAHSLILQHL]”: the “differences between healthy female patients (HF) and female patients with MS (FMS) in the levels of antibody that bind to the oligopeptide” value in data set [2] was “significant for each exemplary oligopeptide besides H and S”.

As to “RVPGCAHHADSLYTYPV (Oligopeptide motif) [antigen F]”, in the data set with C57BL/6 mice [3] (male mice, fall from inverted cage and ring), the “muscle weakness in male mice” value is listed as “most pronounced muscle weakness”. Also, in the data set with C57BL/6 mice [3], the “grade of plaques compared to control animals” value is “significantly higher”. Moreover, the “grade of plaque formation” value in the data set with C57BL/6 mice [4] (male mice) was 7 (18-21). Further, in the data set on C57BL/6 mice [4] (males), the “induction of MS in males” value was “major inducer of MS in males”. Moreover, in the data set with chicks, the “balance compared to controls” value is “lack of balance”, the “time to initial symptoms” value came out at 12 days and the “weight compared to controls” value was “Significant weight loss”.

The values are drawn from US11435345B2, “Detection and treatment of demyelinating diseases” (MATN SCIENTIFIC LIMITED, priority 2016, dated 2022).
